Assay results from patent US10258659B2, “Water soluble defructosylated pea extract, and use thereof as a prebiotic agent” (OLYGOSE, priority 2009, dated 2019).
Marks after values point to notes of the source that are not given here.

Details: human, in vivo

β-galacto-oligosaccharides [β-GOS]
Abdominal noises F (frequency of the symptoms): 1.8 ^b | Abdominal noises I (intensity of the symptoms): 1.6 ^ab | Abdominal pain F (frequency of the symptoms): 1.6 ^ab | Abdominal pain I (intensity of the symptoms): 1.5 ^ab | Bloating F (frequency of the symptoms): 1.6 ^ab | Bloating I (intensity of the symptoms): 1.7 ^b | Cumulative grade: 21.3 ^b | Flatulence F (frequency of the symptoms): 2.9 ^b | Flatulence I (intensity of the symptoms): 2.5 ^b | Nausea F (frequency of the symptoms): 1.2 ^a | Nausea I (intensity of the symptoms): 1.1 ^a | Need to defecate F (frequency of the symptoms): 2.1 ^a | Need to defecate I (intensity of the symptoms): 1.7 ^a
